Test results taken from PubChem BioAssay AID1963837 (Molecular Pharmacology Branch, DTP, NCI, 2024).

Test system: 843126-344-R-J1-PDC complex spheroid viability
Experiment: Anticancer human tumor 843126-344-R-J1-PDC patient-derived melanoma cell line growth inhibition [POLQ]
Settings: for IC50: curve of first compound; for viability, T/C: stronger effect = lower value
How it was run: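 Growth inhibition in 3D: complex spheroids (tumor PDC, HUVEC, MSC) treated with POLQ inhibitor combinations; where Cmax unknown, highest tested concentration 10 microM, except SN-38 at 1 microM.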
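Throughout, for viability, T/C: spheroids exposed to drugs for seven days before readout.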

In the case of `CC1COCCN1c1cc(C2(O)CC3CCC(C2)O3)c2cnn(-c3ccn[nH]3)c2n1` (configuration not stated) + COC1C(OC(N)=O)C(O)C(Oc2ccc3c(O)c(NC(=O)c4ccc(O)c(CC=C(C)C)c4)c(=O)oc3c2C)OC1(C)C, the IC50 (second compound 0.0316 µM) is reported as 387 nM, the IC50 (second compound 0.1 µM) is reported as 485 nM and the IC50 (second compound 0.316 µM) is reported as 405 nM. For the same compound, the IC50 (second compound 1 µM) was 391 nM, the IC50 (second compound 3.16 µM) was 399 nM and the IC50 (second compound 10 µM) was 493 nM. For the same compound, the viability, T/C (second compound 0.0316 µM, first compound 0.0316 µM) was 83.6%, the viability, T/C (second compound 0.0316 µM, first compound 0.1 µM) was 66.6% and the viability, T/C (second compound 0.0316 µM, first compound 0.316 µM) was 53.6%. For the same compound, the viability, T/C (second compound 0.0316 µM, first compound 1 µM) was 38.9%, the viability, T/C (second compound 0.0316 µM, first compound 3.16 µM) was 22.7% and the viability, T/C (second compound 0.0316 µM, first compound 10 µM) was 14.5%. The viability, T/C (second compound 0.1 µM, first compound 0.0316 µM) was 78.8%, the viability, T/C (second compound 0.1 µM, first compound 0.1 µM) was 78.9% and the viability, T/C (second compound 0.1 µM, first compound 0.316 µM) was 53.2%. For the same compound, the viability, T/C (second compound 0.1 µM, first compound 1 µM) was 38.8%, the viability, T/C (second compound 0.1 µM, first compound 3.16 µM) was 27.2% and the viability, T/C (second compound 0.1 µM, first compound 10 µM) was 18.3%. It also gave a viability, T/C (second compound 0.316 µM, first compound 0.0316 µM) of 92.1%, a viability, T/C (second compound 0.316 µM, first compound 0.1 µM) of 64.9% and a viability, T/C (second compound 0.316 µM, first compound 0.316 µM) of 51.5%. For the same compound, the viability, T/C (second compound 0.316 µM, first compound 1 µM) was 44.5%, the viability, T/C (second compound 0.316 µM, first compound 3.16 µM) was 22.5% and the viability, T/C (second compound 0.316 µM, first compound 10 µM) was 15.1%. For the same compound, the viability, T/C (second compound 1 µM, first compound 0.0316 µM) was 73.2%, the viability, T/C (second compound 1 µM, first compound 0.1 µM) was 68.3% and the viability, T/C (second compound 1 µM, first compound 0.316 µM) was 51.4%. For the same compound, the viability, T/C (second compound 1 µM, first compound 1 µM) was 36.3%, the viability, T/C (second compound 1 µM, first compound 3.16 µM) was 27.4% and the viability, T/C (second compound 1 µM, first compound 10 µM) was 14.7%. The viability, T/C (second compound 3.16 µM, first compound 0.0316 µM) was 88.7%, the viability, T/C (second compound 3.16 µM, first compound 0.1 µM) was 55.5% and the viability, T/C (second compound 3.16 µM, first compound 0.316 µM) was 53.2%. For the same compound, the viability, T/C (second compound 3.16 µM, first compound 1 µM) was 46.8%, the viability, T/C (second compound 3.16 µM, first compound 3.16 µM) was 26.1% and the viability, T/C (second compound 3.16 µM, first compound 10 µM) was 15.6%. It also gave a viability, T/C (second compound 10 µM, first compound 0.0316 µM) of 72.5%, a viability, T/C (second compound 10 µM, first compound 0.1 µM) of 66.9% and a viability, T/C (second compound 10 µM, first compound 0.316 µM) of 54.7%. It also gave a viability, T/C (second compound 10 µM, first compound 1 µM) of 41.6%, a viability, T/C (second compound 10 µM, first compound 3.16 µM) of 25.6% and a viability, T/C (second compound 10 µM, first compound 10 µM) of 11.7%.
